Source: patent publication US12280125B2 (Imam Abdulrahman Bin Faisal University, priority 2022, dated 2025)

What was measured:
liver tissue = assay: Histopathological evaluation of liver (H&E); format: in vivo; settings: diabetic rats, after treatment
Text: (§1) After treatment, the organs (liver and pancreas) of the rats were collected for histopathological evaluation. […] To collect the tissue at the end of the treatment time, animals were sacrificed under anesthetic conditions. These tissues were washed with phosphate-buffered saline (PBS) and fixed in 10% formalin (Tissue processing station-Tissue Teck VIP 5). The collected samples were properly stored under normal room temperature and were cut/sliced using a semiautomated microtome (Accu-Cut SRM system) into a few small pieces of 3-5 mm from each sample tissue and were separately embedded in paraffin blocks. These sliced tissues were mounted on the glass slides and were properly fixed on the glass slide with a hot plate. After this xylene was used to remove the paraffin from the tissues and was rehydrated by using a series of graded ethanol dilutions, 100%, 90%, and 70%. The rehydrated tissue sections were stained with hematoxylin and eosin (H&E) and were examined using light microscopy to determine the architecture and proportions of islet and acinar cells in the pancreas and hepatocytes in the liver. […] These cords of hepatocytes are separated by narrow intervening sinusoids lined by endothelial cells and Kupffer cells. No inflammatory cells are seen (FIG. 20A).

diabetic animals [1] = assay: Non fasting blood glucose levels during 28 days; format: in vivo, rats; settings: standard insulin group
Protocol: Non fasting blood glucose levels were measured for all the groups during the 28 days.

[2] = Body weight during 28 days; set-up: species or system rats; settings: rat, in vivo
pancreatic tissue = assay: Histopathological evaluation of pancreas (H&E); format: in vivo; settings: diabetic rats, after treatment
Text: as §1, with “In the control group, acinar” for “These cords of hepatocytes are separated by narrow intervening sinusoids lined by endothelial cells”, “islet” for “Kupffer cells. No inflammatory”, “seen in the pancreas in normal proportions. The acinar cells are arranged in lobules and are stained darkly with prominent nuclei. The islet cells are embedded within the acinar cells and surrounded by a fine capsule” for “seen”, “19A). […]” for “20A).”

diabetic animals [3] = assay: Long-term effect on fasting blood glucose over 28 days; format: in vivo, rats; settings: standard insulin treated group

Substance: standard insulin: standard insulin dose used as the comparison treatment group in diabetic rats
- Liver histology (liver tissue): the liver histology shows mostly a normal lobular architecture with normal cords of hepatocytes with intervening patent sinusoids with focal congestion with only occasional hepatocytes showing degenerative changes and no inflammation is seen
- Non fasting blood glucose level at day 1 (diabetic animals [1]): 487 mg/dL
- Non fasting blood glucose level at day 28 (diabetic animals [1]): 371 mg/dL
- Body weight at day 28 compared to the weight at day 21 [2]: significant (p=<0.001) improvement
- Improvement in body weight compared to diabetic control group [2]: significant (p=<0.0001)
- Pancreatic histology (pancreatic tissue): the pancreatic histology is similar to that of the diabetic control
- Fasting blood glucose level, initial (diabetic animals [3]): 433 mg/dL
- Fasting blood glucose level, reduced (diabetic animals [3]; p=<0.001): 371 mg/dL
